Entries after “also recorded” stand apart in the source; their conditions may differ. Like-named read-outs stand apart in the source and are kept apart here.
Columns and labels:
Human PDE10A2 [1] = molecular target: T1, Human PDE10A2 (Homo sapiens (Human), UniProt Q9Y233); assay: Cell based human PDE10A activity assay - cAMP HTRF assay in HEK 293 rhPDE10A2 cell line
Procedure: Semi log compound dilutions starting at a final concentration of 10 μM were dispensed into a white 384 well plate, alongside DMSO and an Inhibited control using the Tecan D300e digital dispenser. HEK 293 cells overexpressing recombinant human PDE10A2 were seeded on top of the compounds at 2500 cells/well in a volume 5 μL/well. The plate was incubated at room temperature for 60 minutes. To induce endogenous cAMP, 5 μL/well of Forskolin at a final assay concentration of 10 μM was added to the plate. The plate was incubated at room temperature for a further 45 minutes. cAMP HTRF detection reagents were added, and the plate was incubated for 60 minutes at room temperature. […] Data was analysed using a 4-parameter fit.

[2] = Determination of CNS penetration in vivo (brain to plasma partitioning, Kpuu); set-up: species or system Male Sprague Dawley Rats; conditions: male, Sprague-Dawley, brain / plasma (unbound); rat, IV, 1 mg/kg, 10-30 min post dose
Human PDE10A2 [3] = molecular target: T1, Human PDE10A2; assay: Biochemical human PDE10A activity assay - PDE10A2 Phosphate Sensor Assay; conditions: cGMP 3 μM substrate, PDE10A2 0.25 nM
Procedure: Biochemical Human PDE10A Activity Assay—PDE10A2 Phosphate Sensor Assay
Semi Log compound dilutions starting at a final concentration of 50 μM were dispensed into a black 384 well plate alongside, DMSO and an Inhibited control using the Echo Acoustic dispenser. […] Data was analysed using a 4-parameter fit.

[4] = tested on: inflamed colonic mucosa from ulcerative colitis patients; assay: Ex-vivo colon biopsy culture from ulcerative colitis patients, cytokine release (Protocol 1); type: cell-based, human
Procedure: The effect of selective PDE10A inhibition was tested on inflamed colonic mucosa from ulcerative colitis patients taken during routine endoscopy (Protocol 1 detailed below). These samples retain a disease phenotype in ex-vivo culture, secrete high basal levels of inflammatory cytokines, and represent a highly relevant and translational disease model. The effect of the PDE10A inhibitors on levels of the inflammatory cytokines IL-6 and IL-8 released from these tissue samples were measured. Both IL-6 and IL-8 are key regulators in ulcerative colitis pathology and their levels correlate with disease severity (Waldner M J et al. Master regulator of intestinal disease: IL-6 in chronic inflammation and cancer development. Semin Immunol. 26(1), 75-9 (2014); Bernardo D et al. IL-6 promotes immune responses in human ulcerative colitis and induces a skin-homing phenotype in the dendritic cells and T-cells they stimulate. Eur J Immunol. 42(5), 1337-53 (2012); Pearl D S, Cytokine mucosal expression in ulcerative colitis, the relationship between cytokine release and disease activity. J Crohns Colitis. 7(6), 481-9 (2013)).
These colon biopsies retain an inflammatory phenotype and secrete high levels of inflammatory cytokines in ex-vivo culture.
(§1) Biopsy tissue was obtained from inflamed colonic mucosa from ulcerative colitis or Crohn's disease patients during routine endoscopy. Ex-vivo biopsy cultures for the analysis of inflammatory cytokine biomarkers were run as previously described (Vossenkämper A. et al. A CD3- specific antibody reduces cytokine production and alters phosphoprotein profiles in intestinal tissues from patients with inflammatory bowel disease. Gastroenterology, 147, 172-183 (2014)). Biopsies were incubated in organ culture for 24 h with the addition of positive control compounds, or specific PDE10A inhibitors. Supernatants collected at the end of the experiment were snap-frozen and stored at −70° C. For the measurement of cytokines, the frozen culture supernatants were thawed and analysed for levels of the inflammatory cytokines using Luminex cytokine assay kits (R&D Systems) and an R&D Systems MAGPIX® analyser. Mean values ±SDs were calculated for the levels of spontaneous cytokine production measured in biopsy culture supernatants from each treatment group.

other PDE family members = conditions: read-out: IC50s for other PDE family members; literature value; cited from earlier work
[5] = tested on: inflamed colonic mucosa from Crohn's Disease patients; assay: Ex-vivo colon biopsy culture from Crohn's disease patients, cytokine release (Protocol 1); type: cell-based, human; conditions: 0.1 uM; 2 independent CD patient biopsies; vs DMSO vehicle; listed as PF-2545920
Procedure: In addition, we tested the effect of selective PDE10A inhibition using 0.1 uM PF-2545920 on inflamed colonic mucosa from Crohn's Disease patients taken during routine endoscopy (Protocol 1).
as §1

[6] = tested on: inflamed colonic mucosa from pharmacotherapy treatment-refractory ulcerative colitis patients; assay: Ex-vivo culture of inflamed colon tissue from surgical resection of treatment-refractory UC patients, TNFα release (Protocol 2); type: cell-based, human; conditions: 1 μM; UC donors 4 and 5; with SEB; about 18 hours; vs DMSO vehicle
[7] = tested on: isolated human neutrophil; assay: In vitro assay of IL-8 neutrophil activation; type: cell-based
[8] = 100 nM, UC donor 3, vs vehicle control
[9] = UC donors 1 and 2, PF-02545920 0.1 μM and 1 μM, TAK-063 1 uM, 24 h, vs DMSO vehicle
[10] = Forskolin 10 μM, read-out: cAMP HTRF Assay in HEK 293 rhPDE10A2 cell line (pIC50) (converted)

T1 sequence (Q9Y233 267-1055): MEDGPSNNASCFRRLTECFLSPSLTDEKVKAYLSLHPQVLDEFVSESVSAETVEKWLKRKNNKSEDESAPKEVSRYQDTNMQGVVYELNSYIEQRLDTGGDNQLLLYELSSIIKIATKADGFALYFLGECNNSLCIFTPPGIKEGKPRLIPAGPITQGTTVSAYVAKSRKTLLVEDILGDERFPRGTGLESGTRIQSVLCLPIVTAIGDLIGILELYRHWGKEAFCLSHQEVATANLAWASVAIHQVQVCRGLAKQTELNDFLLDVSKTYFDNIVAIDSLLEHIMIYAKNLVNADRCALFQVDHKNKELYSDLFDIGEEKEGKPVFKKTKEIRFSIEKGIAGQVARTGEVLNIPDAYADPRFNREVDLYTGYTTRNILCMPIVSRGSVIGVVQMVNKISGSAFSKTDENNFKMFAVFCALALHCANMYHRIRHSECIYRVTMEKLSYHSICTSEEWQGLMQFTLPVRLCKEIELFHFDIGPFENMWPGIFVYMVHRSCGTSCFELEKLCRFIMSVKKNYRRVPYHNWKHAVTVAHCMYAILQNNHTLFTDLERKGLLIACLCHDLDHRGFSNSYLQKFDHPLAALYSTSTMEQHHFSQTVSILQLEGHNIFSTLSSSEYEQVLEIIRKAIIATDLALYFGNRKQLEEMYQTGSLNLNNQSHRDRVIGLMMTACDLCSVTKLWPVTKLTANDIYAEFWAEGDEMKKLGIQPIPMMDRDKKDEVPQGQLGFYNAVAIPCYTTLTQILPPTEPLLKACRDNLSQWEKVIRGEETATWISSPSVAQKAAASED

SMILES | IC50 (Human PDE10A2 [1]) [nM] | Kp uu [2] | PDE10A2 Phosphate Sensor Enzyme Assay (pIC50) (Human PDE10A2 [3]) | secreted levels of IL-6 [4, 8] | secreted levels of IL-8 [4, 8] | also measured
Cn1cc(-c2ccncc2)c(-c2ccc(OCc3nc(C(=O)N=S(C)(C)=O)c4ccccc4n3)cc2)n1 [Example 17, N-[Dimethyl(oxo)-λ6-sulfanylidene]-2-[[4-[1-methyl-4-(4-pyridyl)pyrazol-3-yl]phenoxy]methyl]quinazoline-4-carboxamide] | 3.02 | 0.06 | 9.92 | significantly reduce | significantly reduce | 
Cn1cc(-c2ccncc2)c(-c2ccc(OCc3cc(C(=O)O)c4ccccc4n3)cc2)n1 [Example 4, Ammonium 2-[[4-[1-methyl-4-(4-pyridyl)pyrazol-3-yl]phenoxy]methyl]quinoline-4-carboxylate] | 0.813 | 0.32 | 10.1 | significantly reduce | significantly reduce | 
Cn1cc(-c2ccncc2)c(-c2ccc(OCc3nc4ccccc4cc3C(=O)O)cc2)n1 [Example 3, 2-[[4-[1-Methyl-4-(4-pyridyl)pyrazol-3-yl]phenoxy]methyl]quinoline-3-carboxylic acid] | 2.75 | 0.56 | 10.1 |  |  | 
CN(C(=O)c1cc2ccccc2nc1COc1ccc(-c2nn(C)cc2-c2ccncc2)cc1)S(C)(=O)=O [Example 15, N-Methyl-2-[[4-[1-methyl-4-(4-pyridyl)pyrazol-3-yl]phenoxy]methyl]-N-methylsulfonyl-quinoline-3-carboxamide] | 10.7 | 0.06 | 9.22 |  |  | 
O=C(O)Cn1cc(-c2ccncc2)c(-c2ccc(OCc3ccc4ccccc4n3)cc2)n1 [Example 5, 2-[4-(4-Pyridyl)-3-[4-(2-quinolylmethoxy)phenyl]pyrazol-1-yl]acetic acid] | 75.9 | 0.02 | 9.41 |  |  | 
Cn1cc(-c2ccncc2)c(-c2ccc(OCc3cc(C(=O)N=S(C)(C)=O)c4ccccc4n3)cc2)n1 [Example 11, N-[Dimethyl(oxo)-λ6-sulfanylidene]-2-[[4-[1-methyl-4-(4-pyridyl)pyrazol-3-yl]phenoxy]methyl]quinoline-4-carboxamide] | 1 | 0.02 | 10.1 | significantly reduce | significantly reduce | 
Cn1cc(-c2ccncc2)c(-c2ccc(OCc3nc4ccccn4c3C(=O)N=S(C)(C)=O)cc2)n1 [Example 20, N-[Dimethyl(oxo)-λ6-sulfanylidene]-2-[[4-[1-methyl-4-(4-pyridyl)pyrazol-3-yl]phenoxy]methyl]imidazo[1,2-a]pyridine-3-carboxamide] | 6.76 | 0.11 | 9.76 | significantly reduce | significantly reduce | 
Cn1cc(-c2ccncc2)c(-c2ccc(OCc3nc4ccccc4cc3C(=O)NS(C)(=O)=O)cc2)n1 [Example 9, 2-[[4-[1-Methyl-4-(4-pyridyl)pyrazol-3-yl]phenoxy]methyl]-N-methylsulfonyl-quinoline-3-carboxamide] | 1.66 | 0.37 | 10.1 | significantly reduce | significantly reduce | 
Cn1cc(-c2ccncc2)c(-c2ccc(OCc3nc4cccnc4cc3C(=O)N=S(C)(C)=O)cc2)n1 [Example 19, N-[Dimethyl(oxo)-λ6-sulfanylidene]-2-[[4-[1-methyl-4-(4-pyridyl)pyrazol-3-yl]phenoxy]methyl]-1,5-naphthyridine-3-carboxamide] | 5.37 | 0.05 | 9.43 | significantly reduce | significantly reduce | 
COc1cn(-c2ccc(-n3cccn3)cc2F)nc(-c2ccnn2-c2ccccc2)c1=O [TAK-063, 1-[2-fluoro-4-(1H-pyrazol-1-yl)phenyl]-5-methoxy-3-(1-phenyl-1H-pyrazol-5-yl)pyridazin-4(1H)-one, reference compound] |  |  |  |  |  | IC50 (other PDE family members): > 5000 nM; secreted levels of IL-6 [4, 9]: inhibiting; also recorded: significantly reduced; secreted levels of IL-8 [4, 9]: inhibiting; also recorded: significantly reduced
Cn1cc(-c2ccncc2)c(-c2ccc(OCc3ccc4ccccc4n3)cc2)n1 [PF-02545920] |  |  |  |  |  | secreted levels of IL-6 [5]: inhibits; also recorded: significantly reduced; secreted levels of IL-8 [5]: inhibits; also recorded: significantly reduced; IC50 (other PDE family members): > 1000 nM; secreted levels of TNFα [6]: inhibiting; also recorded: significantly reduced; IL-8 induced neutrophil activation [7]: dose dependently inhibited; secreted levels of IL-6 [4, 9]: inhibiting; also recorded: significantly reduced; secreted levels of IL-8 [4, 9]: inhibiting; also recorded: significantly reduced
Cn1cc(-c2ccncc2)c(-c2ccc(OCc3cc(NC(=O)N=S(C)(C)=O)c4ccccc4n3)cc2)n1 [Example 36, 1-[Dimethyl(oxo)-λ6-sulfanylidene]-3-[2-[[4-[1-methyl-4-(4-pyridyl)pyrazol-3-yl]phenoxy]methyl]-4-quinolyl]urea] |  |  | 9.46 |  |  | IC50 (Human PDE10A2 [1]; [10]): 16.6 nM
Cn1cc(-c2ccncc2)c(-c2ccc(OCc3nc4ccccc4nc3C(=O)N=S(C)(C)=O)cc2)n1 [Example 18, N-[Dimethyl(oxo)-λ6-sulfanylidene]-3-[[4-[1-methyl-4-(4-pyridyl)pyrazol-3-yl]phenoxy]methyl]quinoxaline-2-carboxamide] | 102 | 0.03 | 9.34 |  |  | 
Cn1cc(-c2ccncc2)c(-c2ccc(OCc3nc4ccccc4cc3C(=O)N=S(C)(C)=O)cc2)n1 [Example 10, N-[Dimethyl(oxo)-λ6-sulfanylidene]-2-[[4-[1-methyl-4-(4-pyridyl)pyrazol-3-yl]phenoxy]methyl]quinoline-3-carboxamide] | 1.1 | 0.02 | 10 | significantly reduce | significantly reduce | 
Cn1cc(-c2ccncc2)c(-c2ccc(OCc3nc4ccccc4nc3N3CCNCC3)cc2)n1 [Example 42, 2-[[4-[1-Methyl-4-(4-pyridyl)pyrazol-3-yl]phenoxy]methyl]-3-piperazin-1-yl-quinoxaline] | 12.3 |  | 8.96 |  |  | 
Cn1cc(-c2ccncc2)c(-c2ccc(OCc3cc(C(=O)N=S(C)(C)=O)c4c(Cl)cccc4n3)cc2)n1 [Example 26, 5-Chloro-N-[Dimethyl(oxo)-λ6-sulfanylidene]-2-[[4-[1-methyl-4-(4-pyridyl)pyrazol-3-yl]phenoxy]methyl]quinoline-4-carboxamide] |  |  | 9.13 |  |  | IC50 (Human PDE10A2 [1]; [10]): 42.7 nM
Cn1ncc(-c2ccncc2)c1-c1ccc(OCc2nc3ccccc3cc2C(=O)O)cc1 [Example 2, 2-[[4-[2-Methyl-4-(4-pyridyl)pyrazol-3-yl]phenoxy]methyl]quinoline-3-carboxylic acid] |  |  | 9.69 |  |  | IC50 (Human PDE10A2 [1]; [10]): 0.117 nM
